The text below walks through data of patent US8859544B2, “Indolizine derivatives, process for the preparation thereof and therapeutic use thereof” (Sanofi, priority 2010, dated 2014).

Values joined by “and” are separate entries in the source; they are usually repeats but may differ in a detail not shown here. Identical values can stand only once.

Data set [1] deals with inflammatory angiogenesis in mice. In words: Model of inflammatory angiogenesis in mice. It is filed as in vivo. Conditions: for % inhibition of the angiogenic parameter (dye content) / % inhibition of the inflammatory parameter (mass of the granuloma): mice, daily oral treatment. The procedure: The model is developed on OF1 female mice (Charles River Laboratories) weighing approximately 25 g, and by groups of 12. The animals are anaesthetized with sodium pentobarbital (60 mg/kg; Sanofi Nutrition Santé animale)) intraperitoneally. An air pocket is created on the back of the mouse by subcutaneous injection of 3 ml of air. […] Seven days later, the mice are again anaesthetized and placed on a hot plate at 40° C. One ml of carmine red (Aldrich Chemicals, 5% in 10% of gelatin) is injected into the tail vein. The animals are then placed at 4° C. for 2-3 hours. The skins are then taken and dried for 24 h in an oven at 56° C. The dry tissues are weighed and placed in 1.8 ml of digestion solution (2 mM dithiothreitol, 20 mM Na2HPO4, 1 mM EDTA, 12 U/ml papain) for 24 h. The dye is then dissolved in 0.2 ml of 5M NaOH. The skins are centrifuged at 2000 rpm for 10 min at ambient temperature. The supernatants are filtered through 0.2 μm cellulose acetate membranes. The filtrates are read in a spectrophotometer at 492 nm against a carmine red calibration range. Two parameters are studied: the dry weight of the granuloma and the amount of dye after digestion of the tissues. The results are expressed as mean values (±sem). The differences between the groups are tested with an ANOVA followed by a Dunnett's test, of which the reference group is the “solvent control” group.
The FGF-R antagonists are evaluated between 1 and 50 mg/kg using methylcellulose/tween (0.6% v/v) as vehicle or any other vehicle which allows the active ingredient to be solubilized. The molecules are administered daily, orally (one or two times a day) by gavage.

Data set [2] concerns HUVEC cells stimulated with FGF-2. In words: FGF-2-induced in vitro angiogenesis of HUVEC cells. The class given is cell-based, human. The following applies: as a percentage of the control. The procedure: To do this, matrices composed of matrigel (growth factor reduced matrigel, Becton Dickinson 356230) and collagen (rat tail collagen type I, Becton Dickinson 354236) are deposited, at a rate of 160 μl, into each chamberslide well (Biocoat Cellware collagen, Type I, 8-well culturesides: Becton Dickinson 354630), or 60 μl per well of 96-well plates (Biocoat collagen I cellware, Becton Dickinson 354407). The matrix is prepared by mixing ⅓ of matrigel, 1 mg/ml final concentration of collagen, NaOH (0.1N) (0.026× the volume of collagen in μl) and 1×PBS, and the volume is then adjusted with water. The gels are kept at 37° C. for 1 hour so as to allow them to polymerize. Next, the human vein endothelial cells (HUVECs ref: C-12200-Promocell) were seeded at 15×10^3 or 6×10^3 cells/well in 400 or 120 μl (for the 8-well or 96-well plates respectively) of EBM medium (Clonetics C3121)+2% FBS+10 μg/ml hEGF. They were stimulated with 1 or 3 ng/ml of FGF-2 (R&D systems, 133-FB-025; Invitrogen, PHG0026) for 24 h at 37° C. in the presence of 5% CO2. After 24 hours, the length of the network of microtubules formed was measured using a computer-assisted image analysis system (Imagenia Biocom, Courtaboeuf, France) and the total length of the pseudotubules in each well was determined. The average total length of the microcapillary network was calculated in μm for each condition corresponding to the average of 6 replicates.
Stimulation with FGF2 makes it possible to induce the formation of new tubules. An FGF-R antagonist is considered to be active in this test as long as it is capable of partially inhibiting this angiogenesis at a dose less than or equal to 300 nM.

Data set [3] has the same test system. As to the kind of experiment: FGF-2-induced in vitro proliferation of HUVEC cells. The following applies: inhibition of proliferation as percentage of the control. It is filed as cell-based, human. On the procedure: To do this, HUVEC human vein endothelial cells (promocell, C-12200) are seeded at a rate of 5000 cells per well of a 96-well plate (Biocoat collagen I cellware, Becton Dickinson 354650) in 100 μl of RPMI 1640 deprivation medium (Invitrogen, 31872-025) supplemented with 0.5% or 1% FCS, 2 mM glutamine, 1× sodium pyruvate (Invitrogen, 11360-039) and 1×NEAA (Invitrogen, 11140-035), overnight at 37° C. in the presence of 5% CO2. The following morning, the medium is suctioned-off and replaced with 50 μl of deprivation medium containing the antagonists at a 2× concentration, to which are added 50 μl of FGF-2 (R&D systems, 133-FB-025; Invitrogen, PHG0026) at 0.2 ng/ml (i.e. 2×). After 48 or 72 h, 100 μl of Cell Titer-GLOW Luminescent Cell Viability Assay (Promega, G7571) are added for 10 min in order to measure, by means of a luminometer, the amount of ATP present in the cells and which is in relation to the number of cells per well corresponding to the cell proliferation.
The antagonists of the present invention are considered to be active as long as they are capable of inhibiting FGF-2-induced proliferation of HUVEC cells at a dose less than or equal to 300 nM.

Consider `COc1c(C)c(C(=O)c2ccc3nc(C)[nH]c(=O)c3c2)n2ccccc12` [Compound No. 15, 6-[(1-Methoxy-2-methylindolizin-3-yl)carbonyl]-2-methylquinazolin-4(3H)-one], for which the melting point is 290 °C and 287 °C. In data set [1] (30 mg/kg), the “% inhibition of the angiogenic parameter (dye content)” value (“% inhibition … (dye content)” for short) is listed as 21% and the “% inhibition of the inflammatory parameter (mass of the granuloma)” value (“% inhibition … (mass of the granuloma)” for short) was determined as 21%.
As for `CCOC(=O)COn1c(=O)[nH]c2ccc(C(=O)c3c(C)c(OC)c4ccccn34)cc2c1=O` [Compound No. 34, Ethyl({6-[(1-methoxy-2-methylindolizin-3-yl)carbonyl]-2,4-dioxo-1,4-dihydroquinazolin-3(2H)-yl}oxy)acetate], the melting point was found to be 230 °C.
For `COc1c(C)c(C(=O)c2ccc3[nH]c(=O)n(CC(=O)N(C)C)c(=O)c3c2)n2ccccc12` [Compound No. 35, 2-{6-[(1-Methoxy-2-methylindolizin-3-yl)carbonyl]-2,4-dioxo-1,4-dihydroquinazolin-3(2H)-yl}-N,N′-dimethylacetamide], in data set [1] (30 mg/kg), the “% inhibition … (dye content)” value is 36% and the “% inhibition … (mass of the granuloma)” value is 36%. The “dye content corresponding to the angiogenesis” value in data set [1] (10 or 30 mg/kg, after one week of daily treatment) is “significantly reduce”.
Compound `COc1c(C)c(C(=O)c2ccc3[nH]c(=O)n(Cc4nc(C)no4)c(=O)c3c2)n2ccccc12` [Compound No. 36, 6-[(1-Methoxy-2-methylindolizin-3-yl)carbonyl]-3-[(3-methyl-1,2,4-oxadiazol-5-yl)methyl]quinazoline-2,4(1H,3H)-dione] had a melting point of 176 °C.
In the case of `CCCn1c(=O)[nH]c2ccc(C(=O)c3c(C)c(OCCOC)c4ccccn34)cc2c1=O` [Compound No. 48, 6-{[1(2-Methoxyethoxy)-2-methylindolizin-3-yl]carbonyl}-3-propylquinazoline-2,4(1H,3H)-dione], the melting point was found to be 215 °C.
The compound `COc1c(C)c(C(=O)c2ccc3[nH]c(=O)n(N)c(=O)c3c2)n2ccccc12` [Compound No. 51, 3-Amino-6-[(1-methoxy-2-methylindolizin-3yl)carbonyl]quinazoline-2,4(1H,3H)-dione] gave a melting point of 220 °C.
`COc1c(C)c(C(=O)c2ccc3c(c2)c(=O)c(C(=O)[O-])cn3C)n2ccccc12.[Na+]` [Compound No. 62, Sodium salt of 6-[(1-methoxy-2-methylindolizin-3-yl)carbonyl]-1-methyl-4-oxo-1,4-dihydroquinoline-3-carboxylic acid]: in data set [1] (10 mg/kg), the “% inhibition … (dye content)” value was determined as 43% and the “% inhibition … (mass of the granuloma)” value is given as 38%.
`COc1c(C)c(C(=O)c2ccc3c(c2)c(=O)n(CC(=O)N(C)C)c(=O)n3C)n2ccccc12` [Compound No. 68, 2-{6-[(1-Methoxy-2-methylindolizin-3-yl)carbonyl]-1-methyl-2,4-dioxo-1,4-dihydroquinazolin-3(2H)-yl}-N,N-dimethylacetamide] came in with a melting point of 276 °C.
Take `CNC(=O)c1c[nH]c2ccc(C(=O)c3c(C)c(OC)c4ccccn34)cc2c1=O` [Compound No. 96, 6-[(1-Methoxy-2-methylindolizin-3-yl)carbonyl]-N-methyl-4-oxo-1,4-dihydroquinoline-3-carboxamide]: the melting point was determined as 324 °C. The inhibition at 0.003 µM in data set [2] (Homo sapiens, 3 nM) was 123%. For the same compound, the inhibition at 0.03 µM in data set [2] (Homo sapiens, 30 nM) worked out at 129%. For the same compound, the inhibition at 0.03 µM in data set [3] (Homo sapiens, 30 nM, read-out: Percentage inhibition of angiogenesis (%)) is 123%. Further, the inhibition at 0.3 µM in data set [3] (Homo sapiens, 300 nM, read-out: Percentage inhibition of angiogenesis (%)) stood at 129%.
Turning to `CNC(=O)c1cn(C)c2ccc(C(=O)c3c(C)cc4ccccn34)cc2c1=O` [Compound No. 105, N-1-Dimethyl-6-[(2-methylindolizin-3-yl)carbonyl]-4-oxo-1,4-dihydroquinoline-3-carboxamide], the “Percentage inhibition of angiogenesis (%)” value in data set [2] (3 nM) is reported as 25%; in data set [2] (30 nM), 105%; in data set [3] (30 nM), 14%; in data set [3] (300 nM), 123%.
